These results are taken from patent publication US7164024B2, “Benzimidazolone derivatives” (Banyu Pharmaceutical Co., Ltd., priority 2001, dated 2007).

Each structure is given as a SMILES string.

Assay [1] deals with T1, muscarinic acetylcholine receptors of human m2 (Homo sapiens, UniProt P08172).
T1 construct: purchased Receptor Biology, Inc; host or cells: CHO cells
T1 sequence (P08172 1-466): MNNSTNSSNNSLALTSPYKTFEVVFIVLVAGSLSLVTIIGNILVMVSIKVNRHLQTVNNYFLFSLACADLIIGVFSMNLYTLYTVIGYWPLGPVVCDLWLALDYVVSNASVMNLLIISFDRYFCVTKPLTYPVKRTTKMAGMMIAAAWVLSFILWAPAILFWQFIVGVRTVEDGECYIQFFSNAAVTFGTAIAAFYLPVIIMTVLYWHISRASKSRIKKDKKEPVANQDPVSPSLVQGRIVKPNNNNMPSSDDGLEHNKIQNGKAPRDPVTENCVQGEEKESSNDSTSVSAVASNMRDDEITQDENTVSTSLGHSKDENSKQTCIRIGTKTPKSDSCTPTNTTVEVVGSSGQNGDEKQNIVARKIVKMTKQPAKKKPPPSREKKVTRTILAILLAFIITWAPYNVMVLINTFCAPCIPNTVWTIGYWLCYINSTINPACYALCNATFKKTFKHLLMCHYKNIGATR
Briefly: Test on inhibition of binding to muscarinic receptors (m2). The note with it: human m2 expressed in CHO cells, 0.2 nM [3H]-N-methylscopolamine, 5000 nM GTPγS, 120 minutes at room temperature. On the procedure: (§1) The test was performed according to a modification of the method of Hargreaves, et al. (Br. J. Pharmacol. 107: 494–501, 1992). Namely, muscarinic acetylcholine receptors of human m1, m2, m3, m4 and m5 expressed in CHO cells (Receptor Biology, Inc.) were incubated with 0.2 nM [^3H]-N-methylscopolamine (82Ci/mmol, New England Nuclear, Inc.) and a test compound, either in 0.5 ml of 50 mM Tris-HCI, 10 mM MgCl2, 1 mM EDTA solution (pH 7.4) (human m1, m3 and m5 samples) or in 0.5 ml of 50 mM tris-HCl, 10 mM MgCl2, 1 mM EDTA, 5000 nM GTPγS solution (pH 7.4) (human m2 and m4 samples) for 120 minutes at room temperature (about 20–25° C.), followed by suction filtration over a glass filter (UniFilter plate-GF/C; Packard). Then the filter was washed four times with 1 ml of ice-cooled Tris-HCI buffer and dried at 50° C. for an hour. After adding a scintillator (Microscinti 0; Packard), the radioactivity of [^3H]-N-methylscopolamine binding to the filter was counted with a microplate scintillation counter (TopCount; Packard). Non-specific receptor binding of [^3H]-N-methylscopolamine was measured by adding 1 μM N-methylscopolamine. According to the method of Cheng and Prusoff (Biochem. Pharmacol. 22: 3099–3108, 1973), the binding affinity of each sample compound of the present invention for muscarinic receptors is expressed by inhibition constant (Ki) which is calculated from the concentration (IC50) of the sample compound which achieves 50% inhibition of binding of [^3H]-N-methylscopolamine, the labeled ligand. Smaller inhibition constant (Ki) represents stronger tendency to bind to muscarinic receptors, i.e., a higher binding inhibitory effect.

The target of assay [2] is T2, muscarinic acetylcholine receptors of human m1 (Homo sapiens, UniProt P11229).
T2 construct: purchased Receptor Biology, Inc; host or cells: CHO cells
T2 sequence (P11229 1-460): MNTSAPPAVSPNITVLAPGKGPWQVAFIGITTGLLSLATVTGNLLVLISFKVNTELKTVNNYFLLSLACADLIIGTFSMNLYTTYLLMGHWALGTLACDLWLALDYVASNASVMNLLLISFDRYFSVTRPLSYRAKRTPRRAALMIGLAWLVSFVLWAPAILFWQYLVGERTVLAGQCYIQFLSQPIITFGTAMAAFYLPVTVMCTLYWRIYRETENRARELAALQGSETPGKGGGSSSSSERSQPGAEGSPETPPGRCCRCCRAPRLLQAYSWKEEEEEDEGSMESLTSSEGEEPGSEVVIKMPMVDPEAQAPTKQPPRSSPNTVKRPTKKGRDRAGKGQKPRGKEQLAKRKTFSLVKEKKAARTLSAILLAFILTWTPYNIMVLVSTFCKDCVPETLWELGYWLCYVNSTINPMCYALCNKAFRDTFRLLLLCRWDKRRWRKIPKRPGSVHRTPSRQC
Briefly: Test on inhibition of binding to muscarinic receptors (m1). The note with it: human m1 expressed in CHO cells, 0.2 nM [3H]-N-methylscopolamine, 120 minutes at room temperature. The procedure: as §1

The target of assay [3] is T3, muscarinic acetylcholine receptors of human m4 (Homo sapiens, UniProt P08173).
T3 construct: purchased Receptor Biology, Inc; host or cells: CHO cells
T3 sequence (P08173 1-479): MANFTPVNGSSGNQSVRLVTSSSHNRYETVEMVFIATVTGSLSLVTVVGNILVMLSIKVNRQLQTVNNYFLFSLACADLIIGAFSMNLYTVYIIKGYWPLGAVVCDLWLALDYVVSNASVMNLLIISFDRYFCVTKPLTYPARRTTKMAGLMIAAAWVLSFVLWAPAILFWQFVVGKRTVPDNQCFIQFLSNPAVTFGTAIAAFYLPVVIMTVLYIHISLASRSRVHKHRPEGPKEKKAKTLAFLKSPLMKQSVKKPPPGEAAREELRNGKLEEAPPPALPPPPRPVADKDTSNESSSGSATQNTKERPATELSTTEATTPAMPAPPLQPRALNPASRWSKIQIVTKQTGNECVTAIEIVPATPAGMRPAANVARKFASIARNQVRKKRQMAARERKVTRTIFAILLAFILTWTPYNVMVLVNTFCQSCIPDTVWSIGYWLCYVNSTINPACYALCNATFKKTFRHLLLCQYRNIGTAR
Briefly: Test on inhibition of binding to muscarinic receptors (m4). As to conditions: for Ki: human m4 expressed in CHO cells, 0.2 nM [3H]-N-methylscopolamine, 5000 nM GTPγS, 120 minutes at room temperature; for Selectivity (times) m1/m4: ratio of Ki m1 to Ki m4; for Selectivity (times) m2/m4: ratio of Ki m2 to Ki m4; for Selectivity (times) m3/m4: ratio of Ki m3 to Ki m4; for Selectivity (times) m5/m4: ratio of Ki m5 to Ki m4. On the procedure:
as §1

The target of assay [4] is T4, muscarinic acetylcholine receptors of human m5 (Homo sapiens, UniProt P08912).
T4 construct: purchased Receptor Biology, Inc; host or cells: CHO cells
T4 sequence (P08912 1-532): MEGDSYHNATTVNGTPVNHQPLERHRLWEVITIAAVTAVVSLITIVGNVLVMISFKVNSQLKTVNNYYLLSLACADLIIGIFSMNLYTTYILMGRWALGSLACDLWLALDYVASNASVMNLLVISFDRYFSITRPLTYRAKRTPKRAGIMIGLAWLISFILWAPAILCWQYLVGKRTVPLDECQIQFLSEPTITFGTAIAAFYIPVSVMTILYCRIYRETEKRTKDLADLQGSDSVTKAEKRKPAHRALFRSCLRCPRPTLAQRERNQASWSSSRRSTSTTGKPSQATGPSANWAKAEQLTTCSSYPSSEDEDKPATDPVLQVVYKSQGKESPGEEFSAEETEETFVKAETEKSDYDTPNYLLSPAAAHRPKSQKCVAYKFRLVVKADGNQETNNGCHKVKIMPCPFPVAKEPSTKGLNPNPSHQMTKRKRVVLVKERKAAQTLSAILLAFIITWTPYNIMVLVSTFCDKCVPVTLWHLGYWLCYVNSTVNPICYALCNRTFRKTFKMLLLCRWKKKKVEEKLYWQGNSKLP
Briefly: Test on inhibition of binding to muscarinic receptors (m5). As to conditions: human m5 expressed in CHO cells, 0.2 nM [3H]-N-methylscopolamine, 120 minutes at room temperature. On the procedure: as §1

The target in assay [5] is T5, muscarinic acetylcholine receptors of human m3 (Homo sapiens, UniProt P20309).
T5 construct: purchased Receptor Biology, Inc; host or cells: CHO cells
T5 sequence (P20309 whole entry): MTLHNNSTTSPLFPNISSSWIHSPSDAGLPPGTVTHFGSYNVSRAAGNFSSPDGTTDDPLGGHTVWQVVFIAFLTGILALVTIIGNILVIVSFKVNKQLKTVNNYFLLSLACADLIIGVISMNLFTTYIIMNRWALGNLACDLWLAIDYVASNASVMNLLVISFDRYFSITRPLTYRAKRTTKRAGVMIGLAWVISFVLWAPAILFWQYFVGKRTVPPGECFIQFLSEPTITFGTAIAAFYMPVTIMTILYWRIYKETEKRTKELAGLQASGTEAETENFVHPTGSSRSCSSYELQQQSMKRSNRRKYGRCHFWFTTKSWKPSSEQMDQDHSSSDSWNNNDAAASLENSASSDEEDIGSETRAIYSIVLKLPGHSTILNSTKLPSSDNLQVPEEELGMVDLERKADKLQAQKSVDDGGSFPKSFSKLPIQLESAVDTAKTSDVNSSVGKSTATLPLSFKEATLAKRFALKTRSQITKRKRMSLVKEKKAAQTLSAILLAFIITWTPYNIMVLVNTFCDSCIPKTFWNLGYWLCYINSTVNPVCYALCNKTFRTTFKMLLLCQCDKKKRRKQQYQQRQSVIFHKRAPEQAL
Briefly: Test on inhibition of binding to muscarinic receptors (m3). As to conditions: human m3 expressed in CHO cells, 0.2 nM [3H]-N-methylscopolamine, 120 minutes at room temperature. On the procedure: as §1

The Ki is the equilibrium dissociation constant of an inhibitor or competing ligand from its target.

Consider `O=C(c1cccnc1)N1CCCC(CCN2CCC(n3c(=O)[nH]c4ccccc43)CC2)CC1` (single isomer, unassigned) [Example 9, (S*)-1-[1-[2-[1-(3-pyridylcarbonyl)perhydroazepin-4-yl]ethyl]piperidin-4-yl]-1,3-dihydro-2H-benzimidazol-2-one], for which the affinity in assay [1], expressed as Ki, was 31 nM. The Ki in assay [2] was determined as 25 nM. In assay [3], the inhibitory constant (Ki) worked out at 1.7 nM, the “Selectivity (times) m1/m4” value is on record as 15 times, the “Selectivity (times) m2/m4” value is recorded as 19 times and the “Selectivity (times) m3/m4” value came to 1000 times. In addition, the “Selectivity (times) m5/m4” value in assay [3] is 270 times. This compound returned a Ki in assay [4] of 450 nM. Besides, the affinity in assay [5] corresponds to a Ki of 1700 nM.

In assay [1], `O=C(c1cnccn1)N1CCC(CCN2CCC(n3c(=O)[nH]c4ccccc43)CC2)CC1` [Example 4, 1-[1-[2-[1-(Pyrazinylcarbonyl)piperidin-4-yl]ethyl]piperidin-4-yl]-1,3-dihydro-2H-benzimidazol-2-one] had a Ki of 73 nM. In assay [2], this compound came in with an inhibition constant Ki of 28 nM. In addition, in assay [3], the affinity, expressed as Ki, was 4.5 nM; the “Selectivity (times) m1/m4” value worked out at 6.1 times; the “Selectivity (times) m2/m4” value was 16 times; the “Selectivity (times) m3/m4” value was found to be 1600 times. In assay [3], the “Selectivity (times) m5/m4” value came out at 57 times. The compound also displayed an inhibition constant Ki in assay [4] of 260 nM. Besides, in assay [5], the Ki worked out at 7400 nM.

On to `CC(CN1CCC(n2c(=O)[nH]c3ccccc32)CC1)C1CCN(C(=O)c2cccnc2)CC1` (stereo not drawn) [Example 12, 1-[1-[2-[1-(3-Pyridylcarbonyl)piperidin-4-yl]propyl]piperidin-4-yl]-1,3-dihydro-2H-benzimidazol-2-one], for which, in assay [1], the Ki turned out to be 24 nM. In assay [2], this compound gave a Ki of 22 nM. In assay [3], the Ki turned out to be 2.3 nM, the “Selectivity (times) m1/m4” value turned out to be 9.7 times, the “Selectivity (times) m2/m4” value is listed as 11 times and the “Selectivity (times) m3/m4” value is given as 2000 times. In addition, the “Selectivity (times) m5/m4” value in assay [3] was determined as 99 times. This compound also registered a Ki in assay [4] of 220 nM. Moreover, the affinity in assay [5], expressed as Ki, was 4500 nM.
